Consider 3 molecules from patent US9670261B2 (Sanofi, priority 2012, dated 2017).

Series [1] deals with female diet-induced obese (DIO) C57BL/6NCrl mice. In words: Body weight in DIO mice, 14 weeks of prefeeding with high-fat diet (method 2). It is filed as in vivo. The procedure:
Female C57BL/6NCrl mice were housed in groups in a specific pathogen-free barrier facility on a 12 h light/dark cycle with free access to water and high-fat diet. After 14 weeks on high-fat diet, mice were stratified to treatment groups (n=8), so that each group had similar mean body weight.
An aged-matched group with ad libitum access to standard chow and water was included as standard control group.
Before the experiment, mice were subcutaneously (s.c.) injected with vehicle solution and weighed for 3 days to acclimate them to the procedures.
Body weight was recorded daily.
Statistical analyses were performed with Everstat 6.0 by repeated measures two-way ANOVA and Dunnett's post-hoc analyses (glucose profile) and 1-way-ANOVA, followed by Dunnett's post-hoc test (body weight, body fat). Differences versus vehicle-treated DIO control mice were considered statistically significant at the p<0.05 level.
Female obese C57BL/6NCrl mice were treated for 3 weeks once daily subcutaneously in the late afternoon, prior the end of the light phase (12 h lights on) with 10 μg/kg SEQ ID NO: 9 and SEQ ID NO: 21 or vehicle. Body weight was recorded daily.

The nature of series [2]: Pharmacokinetic testing in Göttinger minipigs, s.c. The format is in vivo. As to conditions: female, minipig, plasma, sc, Mini pigs, 0.1 mg/kg s.c.
Protocol: Female Göttinger minipigs were dosed 0.1 mg/kg subcutaneously (s.c.). Blood samples were collected after 0.25, 0.5, 1, 2, 4, 8, 24, 32, 48, 56 and 72 hours post application. Plasma samples were analyzed after protein precipitation via liquid chromatography mass spectrometry (LC/MS). PK parameters and half-life were calculated using WinonLin Version 5.2.1 (non-compartment model).
Series [3] deals with female diabetic dbdb-mice. Put plainly: Glucose, HbA1c and oral glucose tolerance in diabetic dbdb-mice, chronic treatment (method 4). The format is in vivo. Here is the method:
8 week old, female diabetic dbdb-mice of mean non-fasted glucose value of 14.5 mmol/l and a body weight of 37-40 g were used. Mice were individually marked and were adapted to housing conditions for at least one week.
7 days prior to study start, baseline values for non-fasted glucose and HbA1c were determined, 5 days prior to study start, mice were assigned to groups and cages (5 mice per cage, 10 per group) according to their HbA1c values to ensure even distribution of lower and higher values between groups (stratification).
Mice were treated for 4 weeks, by once daily subcutaneous administration 3 hours prior to the dark phase (6 pm to 6 am). Blood samples from a tail tip incision were obtained for HbA1c on study day 21 and oral glucose tolerance was assessed in the 4th week. Oral glucose tolerance test was done in the morning without prior extra compound administration to majorly assess the effect of chronic treatment and less of acute compound administration. Mice were fasted for 4 hours prior to oral glucose administration (2 g/kg, t=0 min). Blood samples were drawn prior to glucose administration and at 15, 30, 60, 90, 120, and 180 min thereafter. Feed was returned after the last blood sampling. Results are represented as change from baseline, glucose in mmol/l and HbA1c in %.
Statistical analyses are performed with Everstat Version 6.0 based on SAS by 1-way-ANOVA, followed by Dunnett's post-hoc test against vehicle-control. Differences are considered statistically significant at the p<0.05 level.
Female dbdb-mice, received 3 and 10 μg/kg of SEQ ID NO: 16 and 10 μg/kg of SEQ ID NO: 21 or phosphate buffered saline (vehicle control) once daily, subcutaneously over four weeks.

The subject of series [4] is non-fasted female diabetic dbdb-mice. Put plainly: Glucose lowering in non-fasted female diabetic dbdb-mice. It is filed as in vivo. As to conditions: 3 μg/kg s.c., at 240 min; baseline 20-22 mmol/l. An excerpt: Female diabetic dbdb-mice of mean non-fasted glucose value of 20-22 mmol/l and a body weight of 42 g+/−0.6 g (SEM) were used. Mice were individually marked and were adapted to housing conditions for at least one week.
3-5 days prior to study start mice were assigned to groups and cages (4 mice per cage, 8 per group) according to their non-fasted glucose values to ensure even distribution of lower and higher values between groups (stratification). On the study day, mice were weighed and dosed (t=0). Immediately prior to compound administration feed was removed while water remained available, and a first blood sample at a tail incision was drawn (baseline). Further blood samples were drawn at the tail incision at 30, 60, 90, 120, 240, 360, and 480 min.
Statistical analyses are performed with Everstat Version 6.0 based on SAS by 2-way-ANOVA on repeated measures, followed by Dunnett's post-hoc test against vehicle-control. Differences are considered statistically significant at the p<0.05 level.
Female dbdb-mice, received 3 μg/kg of SEQ ID NO: 14, SEQ ID NO: 21 or phosphate buffered saline (vehicle control) subcutaneously, at time 0 min.

Series [5] in a line: Pharmacokinetic testing in mice, s.c. As to conditions: mouse, plasma, sc, 1 mg/kg.
Protocol: Mice were dosed 1 mg/kg subcutaneously (s.c.). The mice were sacrified and blood samples were collected after 0.25, 0.5, 1, 2, 4, 8, 16 and 24 hours post application. Plasma samples were analyzed after protein precipitation via liquid chromatography mass spectrometry (LC/MS). PK parameters and half-life were calculated using WinonLin Version 5.2.1 (non-compartment model).
Series [6] concerns the target T1, human GIP receptor (Homo sapiens, UniProt P48546).
T1 construct: expressed in transfected cells
T1 sequence (P48546 22-466): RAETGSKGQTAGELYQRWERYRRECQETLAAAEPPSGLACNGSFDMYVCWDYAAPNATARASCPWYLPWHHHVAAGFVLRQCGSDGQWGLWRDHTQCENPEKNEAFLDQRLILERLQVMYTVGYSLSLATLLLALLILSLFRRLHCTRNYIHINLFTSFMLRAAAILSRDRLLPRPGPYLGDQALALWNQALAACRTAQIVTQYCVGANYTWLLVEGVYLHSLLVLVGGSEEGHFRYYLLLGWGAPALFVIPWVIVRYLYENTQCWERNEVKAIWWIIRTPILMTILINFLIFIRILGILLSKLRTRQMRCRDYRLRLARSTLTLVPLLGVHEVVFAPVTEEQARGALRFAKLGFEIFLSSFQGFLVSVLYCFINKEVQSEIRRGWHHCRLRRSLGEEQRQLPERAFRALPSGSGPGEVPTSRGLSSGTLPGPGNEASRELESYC
Put plainly: cAMP response (HTRF) of HEK-293 cells stably expressing human GIP receptor. It is filed as cell-based. As to conditions: Table 7; cAMP formation; read-out: EC50 hGIP R. The procedure: cAMP content of cells was determined using a kit from Cisbio Corp. (cat. no. 62AM4PEC) based on HTRF (Homogenous Time Resolved Fluorescence). For preparation, cells were split into T175 culture flasks and grown overnight to near confluency in medium (DMEM/10% FBS). Medium was then removed and cells washed with PBS lacking calcium and magnesium, followed by proteinase treatment with accutase (Sigma-Aldrich cat. no. A6964). Detached cells were washed and resuspended in assay buffer (1×HBSS; 20 mM HEPES, 0.1% BSA, 2 mM IBMX) and cellular density determined. They were then diluted to 400000 cells/ml and 25 μl-aliquots dispensed into the wells of 96-well plates. For measurement, 25 μl of test compound in assay buffer was added to the wells, followed by incubation for 30 minutes at room temperature.

In series [7] the target is T2, human glucagon receptor (Homo sapiens, UniProt P47871).
T2 construct: expressed in transfected cells
T2 sequence (P47871 26-477): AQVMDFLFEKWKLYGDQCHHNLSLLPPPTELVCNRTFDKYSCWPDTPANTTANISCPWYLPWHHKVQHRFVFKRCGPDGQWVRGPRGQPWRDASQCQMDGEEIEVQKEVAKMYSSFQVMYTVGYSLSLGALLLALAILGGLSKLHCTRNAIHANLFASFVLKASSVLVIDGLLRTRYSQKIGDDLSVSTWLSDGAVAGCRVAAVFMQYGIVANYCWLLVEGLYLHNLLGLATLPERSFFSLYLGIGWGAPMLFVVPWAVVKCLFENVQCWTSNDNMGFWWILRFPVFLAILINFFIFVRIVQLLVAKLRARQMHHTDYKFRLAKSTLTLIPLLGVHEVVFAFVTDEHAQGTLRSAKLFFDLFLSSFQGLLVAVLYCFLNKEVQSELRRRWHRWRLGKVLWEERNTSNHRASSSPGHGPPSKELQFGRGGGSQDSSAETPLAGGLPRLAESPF
Put plainly: cAMP response (HTRF) of HEK-293 cells stably expressing human glucagon receptor. It is filed as cell-based. To be noted: Table 7; cAMP formation; read-out: EC50 hGLUC R.

Series [8] addresses T3, human GLP-1 receptor (Homo sapiens, UniProt P43220).
T3 construct: expressed in transfected cells
Put plainly: cAMP response (HTRF) of HEK-293 cells stably expressing human GLP-1 receptor. It is filed as cell-based. To be noted: Table 7; cAMP formation; read-out: EC50 hGLP-1 R. The gist of the method: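 cAMP accumulation was read by homogeneous time-resolved fluorescence after 30 min compound exposure at room temperature. Stable receptor-expressing HEK-293 cells, 400000 cells/ml, were used in HEPES-buffered HBSS containing 0.1% BSA and the phosphodiesterase inhibitor IBMX (2 mM).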
Background: In TR-FRET formats the signal depends on donor and acceptor labels being close together.

*1 amine or outer side, *2 acyl side, *3 side chain or, on linkers, in order; H or OH if unused. Where a SMILES comes first, the peptide text is derived from it. Side-chain parts run from the residue outwards. [ ]: non-standard residue; d: D form. The star is where a group is joined. γGlu = O=C(O)[C@H](CCC(=O)[*:2])N[*:1]; Stearoyl = CCCCCCCCCCCCCCCCCC(=O)*; Palmitoyl = CCCCCCCCCCCCCCCC(=O)*; Aib = CC(C)(N)C(=O)O A value given as a limit tells only on which side of the number the result lay.

T3 sequence (P43220 24-463): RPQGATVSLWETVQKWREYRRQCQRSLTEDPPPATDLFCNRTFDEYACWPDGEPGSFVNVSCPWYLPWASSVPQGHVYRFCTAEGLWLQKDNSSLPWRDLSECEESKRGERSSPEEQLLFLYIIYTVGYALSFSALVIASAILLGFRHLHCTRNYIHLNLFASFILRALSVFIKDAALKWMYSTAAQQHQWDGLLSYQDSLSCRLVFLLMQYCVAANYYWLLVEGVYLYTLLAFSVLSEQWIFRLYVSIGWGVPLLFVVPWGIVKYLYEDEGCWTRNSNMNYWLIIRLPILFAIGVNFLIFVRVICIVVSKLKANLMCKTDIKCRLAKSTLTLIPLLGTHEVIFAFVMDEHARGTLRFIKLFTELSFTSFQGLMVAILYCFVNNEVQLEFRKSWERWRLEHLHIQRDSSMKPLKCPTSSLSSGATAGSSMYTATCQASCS

Turning to `CCCCCCCCCCCCCCCCCC(=O)N[C@@H](CCC(=O)NCCCC[C@H](NC(=O)[C@H](CCC(N)=O)NC(=O)[C@@H](NC(=O)[C@H](CO)NC(=O)[C@H](CC(C)C)NC(=O)[C@H](CC(=O)O)NC(=O)[C@H](CO)NC(=O)[C@@H](NC(=O)[C@H](Cc1ccccc1)NC(=O)[C@@H](NC(=O)CNC(=O)[C@H](CCC(=O)O)NC(=O)C(C)(C)NC(=O)[C@@H](N)Cc1ccc(O)cc1)[C@@H](C)O)[C@@H](C)O)[C@@H](C)CC)C(=O)N[C@@H](CCC(=O)O)C(=O)N[C@@H](CO)C(=O)N[C@@H](CCCNC(=N)N)C(=O)N[C@@H](C)C(=O)N[C@@H](C)C(=O)N[C@@H](CCC(N)=O)C(=O)N[C@@H](CCC(=O)O)C(=O)N[C@@H](Cc1ccccc1)C(=O)N[C@H](C(=O)N[C@@H](CCC(=O)O)C(=O)N[C@@H](Cc1c[nH]c2ccccc12)C(=O)N[C@@H](CC(C)C)C(=O)N[C@@H](CCCCN)C(=O)N[C@@H](C)C(=O)NCC(=O)NCC(=O)N1CCC[C@H]1C(=O)N[C@@H](CO)C(=O)N[C@@H](CO)C(=O)NCC(=O)N[C@@H](C)C(=O)N1CCC[C@H]1C(=O)N1CCC[C@H]1C(=O)N1CCC[C@H]1C(=O)N[C@@H](CO)C(N)=O)[C@@H](C)CC)C(=O)O` [SEQ ID NO: 21, Y-Aib-E-G-T-F-T-S-D-L-S-I-Q-K(γE-x70)-ESRAAQEFIEWLKAGGPSSGAPPPS-NH2] (H-Y[Aib]EGTFTSDLSIQK([γGlu-Stearoyl])ESRAAQEFIEWLKAGGPSSGAPPPS-NH2), the “decrease of body weight, relative change from baseline” value in series [1] (10 μg/kg s.c. once daily, 3 weeks) is recorded as not above 18.0%. Besides, the Overall weight change in series [1] (10 μg/kg, 3-week treatment, mean ± SEM) is -7.3 ± 0.7 g. Moreover, in series [2], the Cmax stood at 479 ng/mL and the half-life is 19.1 h. For the same molecule, the oral glucose tolerance result in series [3] (once daily s.c., oral glucose 2 g/kg in the 4th week) is recorded as “improved oral glucose tolerance”. Moreover, in series [3] (oral glucose tolerance test, p<0.05), the “reduction of AUC under the glucose curve compared to vehicle control” value is on record as “reached statistical significance”. In addition, in series [4], the “maximal effect, glucose reduction” value lay in the range of 10 to 12 mmol/L. In series [5], this molecule gave a maximum concentration (Cmax) of 5050 ng/mL and a half-life of 4 h. The half-maximal effective concentration (EC50) in series [6] was 0.0064 nM.
Regarding `CCCCCCCCCCCCCCCC(=O)N[C@@H](CCC(=O)NCCCC[C@H](NC(=O)[C@H](CCC(N)=O)NC(=O)[C@@H](NC(=O)[C@H](CO)NC(=O)[C@H](CC(C)C)NC(=O)[C@H](CC(=O)O)NC(=O)[C@H](CO)NC(=O)[C@@H](NC(=O)[C@H](Cc1ccccc1)NC(=O)[C@@H](NC(=O)CNC(=O)[C@H](CCC(=O)O)NC(=O)C(C)(C)NC(=O)[C@@H](N)Cc1ccc(O)cc1)[C@@H](C)O)[C@@H](C)O)[C@@H](C)CC)C(=O)N[C@@H](CC(=O)O)C(=O)N[C@@H](CO)C(=O)N[C@@H](CCCNC(=N)N)C(=O)N[C@@H](C)C(=O)N[C@@H](C)C(=O)N[C@@H](CCC(N)=O)C(=O)N[C@@H](CC(=O)O)C(=O)N[C@@H](Cc1ccccc1)C(=O)N[C@H](C(=O)N[C@@H](CCC(=O)O)C(=O)N[C@@H](Cc1c[nH]c2ccccc12)C(=O)N[C@@H](CC(C)C)C(=O)N[C@@H](CCCCN)C(=O)N[C@@H](C)C(=O)NCC(=O)NCC(=O)N1CCC[C@H]1C(=O)N[C@@H](CO)C(=O)N[C@@H](CO)C(=O)NCC(=O)N[C@@H](C)C(=O)N1CCC[C@H]1C(=O)N1CCC[C@H]1C(=O)N1CCC[C@H]1C(=O)N[C@@H](CO)C(N)=O)[C@@H](C)CC)C(=O)O` [SEQ ID NO: 22, Y-Aib-E-G-T-F-T-S-D-L-S-I-Q-K(γE-x53)-DSRAAQDFIEWLKAGGPSSGAPPPS-NH2] (H-Y[Aib]EGTFTSDLSIQK([γGlu-Palmitoyl])DSRAAQDFIEWLKAGGPSSGAPPPS-NH2), the EC50 in series [7] is 11.6 nM.
As to `CCCCCCCCCCCCCCCC(=O)N[C@@H](CCC(=O)NCCCC[C@H](NC(=O)[C@H](CCC(N)=O)NC(=O)[C@@H](NC(=O)[C@H](CO)NC(=O)[C@H](CC(C)C)NC(=O)[C@H](CC(=O)O)NC(=O)[C@H](CO)NC(=O)[C@@H](NC(=O)[C@H](Cc1ccccc1)NC(=O)[C@@H](NC(=O)CNC(=O)[C@H](CCC(=O)O)NC(=O)C(C)(C)NC(=O)[C@@H](N)Cc1ccc(O)cc1)[C@@H](C)O)[C@@H](C)O)[C@@H](C)CC)C(=O)N[C@@H](CCC(=O)O)C(=O)N[C@@H](CCCCN)C(=O)N[C@@H](CCCNC(=N)N)C(=O)N[C@@H](C)C(=O)N[C@@H](C)C(=O)N[C@@H](CCC(N)=O)C(=O)N[C@@H](CCC(=O)O)C(=O)N[C@@H](Cc1ccccc1)C(=O)N[C@H](C(=O)N[C@@H](CCC(=O)O)C(=O)N[C@@H](Cc1c[nH]c2ccccc12)C(=O)N[C@@H](CC(C)C)C(=O)N[C@@H](CCCCN)C(=O)N[C@@H](C)C(=O)NCC(=O)NCC(=O)N1CCC[C@H]1C(=O)N[C@@H](CO)C(=O)N[C@@H](CO)C(=O)NCC(=O)N[C@@H](C)C(=O)N1CCC[C@H]1C(=O)N1CCC[C@H]1C(=O)N1CCC[C@H]1C(=O)N[C@@H](CO)C(N)=O)[C@@H](C)CC)C(=O)O` [SEQ ID NO: 34, Y-Aib-E-G-T-F-T-S-D-L-S-I-Q-K(γE-x53)-EKRAAQEFIEWLKAGGPSSGAPPPS-NH2] (H-Y[Aib]EGTFTSDLSIQK([γGlu-Palmitoyl])EKRAAQEFIEWLKAGGPSSGAPPPS-NH2), the EC50 in series [7] was 11.6 nM. For the same molecule, in series [5], the peak level (Cmax) was 5130 ng/mL and the half-life is 2.8 h. Further, the EC50 in series [8] turned out to be 0.0046 nM.

By Cmax is commonly meant the peak of the concentration-time curve. In general, half-life refers to the time in which the quantity being followed falls by half. As usually defined, the EC50 is the concentration that produces a half-maximal response.
